In the assay the test system is pepper plants. As to the kind of experiment: Pot spray test of defoliants on pepper plants (defoliation rate and fruit abscission rate). Particulars: sprayed once. The format is in vivo. As for the experimental part: 1 Test temperature and humidity
The defoliant listed in Table 1 is diluted to a certain extent for application. See Table 2 for the active constituents and dilution factor of the defoliant.
100X, 160X and 400X dilution of the C12-C14 fatty alcohol polyoxyethylene (5) ether refers to 100X, 160X and 400X dilution of the defoliant listed in Table 1 containing an active constituent of C12-C14 fatty alcohol polyoxyethylene (5) ether. 160X+1400X dilution of the C12-C14 fatty alcohol polyoxyethylene (5) ether+40% ethephon refers to 160X dilution of the defoliant listed in Table 1 containing an active constituent of C12-C14 fatty alcohol polyoxyethylene (5) ether and mixture with 40% ethephon subject to 1400X dilution, equivalent to that the mixed solution contains 0.5% of C12-C14 fatty alcohol polyoxyethylene (5) ether and 0.029% of ethephon.
A total of 7 treatment plots (including 1 for control group, with water) are arranged for the test, each including 5 pots.
Spray method. The test reagent is prepared according to the design requirements, and then applied once to each treatment plot by uniformly spraying it onto each pot as per 100 ml/m^2 of water consumption, while ensuring consistent spray onto each treatment plot and sufficient spray to cover the whole plant.
Investigating the total number of treated leaves and fruits of each plant before application of the reagent, and 3 days, 5 days, 7 days, 20 days and 25 days after the application, calculating the defoliation rate and observing the influence on fruits.
Adding fixedly 150 ml of water to each pot each time.
According to the investigated data, calculating the defoliation rate as per equation (1), in the unit of percentage (%), rounded to two decimal places.
(1) Defoliation rate (%)=(total number of treated leaves—number of remaining leaves)/total number of treated leaves.
(2) Corrected defoliation rate (%)=(defoliation rate of the treatment plot—defoliation rate of the control group)/(1-defoliation rate of the control group)*100.
If the defoliation rate of the control group <5%, correction is not required; otherwise, the result should be corrected as per equation (2).
(3) Fruit abscission rate (%)=(total number of treated fruits—number of remaining fruits)/total number of treated fruits.
The defoliation effect on the pepper plants is analyzed through comparison of the results of the pots before and after application of the reagent and the control group.

Where [1] appears, read: 100X dilution of Table 1 defoliant.
The mark [2] stands for this setting: 160X dilution of Table 1 defoliant.
Setting [3] is: 400X dilution of Table 1 defoliant.

We go through four substances from patent publication US20220408725A1, “NEW DEFOLIANT AND APPLICATION THEREOF” (CHENGDU NEWSUN CROP SCIENCE CO., LTD., priority 2020, published 2022).

On to “Isomeric C13 fatty alcohol polyoxyethylene (5) ether [Treatment 4]”, for which, under setting [1], the “Defoliation rate 3 days after application” value (“Defoliation rate 3 days” below) was 23.88%, the “Defoliation rate 5 days after application” value (“Defoliation rate 5 days” below) is 40.42%, the “Defoliation rate 7 days after application” value (“Defoliation rate 7 days” below) was found to be 66.7% and the “Defoliation rate 20 days after application” value (“Defoliation rate 20 days” below) turned out to be 64.66%. For the same substance, the “Defoliation rate 25 days after application” value (“Defoliation rate 25 days” for short) under setting [1] is reported as 16.35%. For the same substance, under setting [2], the “Defoliation rate 3 days” value is recorded as 14.35%, the “Defoliation rate 5 days” value was 16.59%, the “Defoliation rate 7 days” value is given as 25.25% and the “Defoliation rate 20 days” value was determined as 27.79%. The “Defoliation rate 25 days” value under setting [2] is listed as 7.78%. Besides, under setting [3], the “Defoliation rate 3 days” value is given as −3.15%, the “Defoliation rate 5 days” value is −2.02%, the “Defoliation rate 7 days” value was 5.81% and the “Defoliation rate 20 days” value amounted to 8.88%. In addition, the “Defoliation rate 25 days” value under setting [3] was −2.16%.

Consider “Straight-chain C12-14 fatty alcohol polyoxyethylene (5) ether [Treatment 3]”, for which, under setting [1], the “Defoliation rate 3 days” value is 54.46%, the “Defoliation rate 5 days” value was 68.84%, the “Defoliation rate 7 days” value was 86.02% and the “Defoliation rate 20 days” value was 69.02%. Further, the “Defoliation rate 25 days” value under setting [1] was determined as 35.12%. Besides, under setting [2], the “Defoliation rate 3 days” value came to 38.84%, the “Defoliation rate 5 days” value was 43.16%, the “Defoliation rate 7 days” value is 64.73% and the “Defoliation rate 20 days” value was 56.79%. Besides, under setting [2], the “Defoliation rate 25 days” value is listed as 35.09%. Under setting [3], the “Defoliation rate 3 days” value is on record as 6.99%, the “Defoliation rate 5 days” value stood at 10.84%, the “Defoliation rate 7 days” value was 15.88% and the “Defoliation rate 20 days” value came to 27.07%. The “Defoliation rate 25 days” value under setting [3] came to 8.36%.

With “C12-C14 fatty alcohol polyoxyethylene (5) ether [Treatment 1]”, under setting [1], the “Defoliation rate 3 days” value is 60.03%, the “Defoliation rate 5 days” value is given as 78.72%, the “Defoliation rate 7 days” value is 94.97% and the “Defoliation rate 20 days” value was 69.9%. Besides, the “Defoliation rate 25 days” value under setting [1] was 18.42%. Moreover, under setting [2], the “Defoliation rate 3 days” value amounted to 66.25%, the “Defoliation rate 5 days” value is 70.63%, the “Defoliation rate 7 days” value is reported as 79.71% and the “Defoliation rate 20 days” value came out at 73.64%. Moreover, the “Defoliation rate 25 days” value under setting [2] turned out to be 51.64%. Besides, under setting [3], the “Defoliation rate 3 days” value is recorded as −1.46%, the “Defoliation rate 5 days” value is 4.66%, the “Defoliation rate 7 days” value is on record as 14.5% and the “Defoliation rate 20 days” value was found to be 26.17%. Besides, the “Defoliation rate 25 days” value under setting [3] worked out at 17.95%.

On to “Full branched-chain C12 fatty alcohol polyoxyethylene (5) ether [Treatment 2]”, for which, under setting [1], the “Defoliation rate 3 days” value was 72.15%, the “Defoliation rate 5 days” value came out at 87.4%, the “Defoliation rate 7 days” value turned out to be 100% and the “Defoliation rate 20 days” value turned out to be 84.33%. Under setting [1], the “Defoliation rate 25 days” value was determined as 75.8%. Under setting [2], the “Defoliation rate 3 days” value turned out to be 74.69%, the “Defoliation rate 5 days” value amounted to 85.12%, the “Defoliation rate 7 days” value is recorded as 93.59% and the “Defoliation rate 20 days” value is recorded as 72.18%. In addition, the “Defoliation rate 25 days” value under setting [2] is 18.07%. Under setting [3], the “Defoliation rate 3 days” value is listed as 5.58%, the “Defoliation rate 5 days” value came to 16.17%, the “Defoliation rate 7 days” value is on record as 21.83% and the “Defoliation rate 20 days” value turned out to be 32.56%. Moreover, the “Defoliation rate 25 days” value under setting [3] came out at 7.88%.
